Measurements published in patent US7585880B2, “Phenylpropanoic acid derivatives” (Takeda Pharmaceutical Company Limited, priority 2003, dated 2009).

Target: T1, human GPR40 (Homo sapiens, UniProt O14842)
T1 construct: expressed in transfected cells
Assay: Determination of EC50 against human GPR40: intracellular calcium change by FLIPR in CHO cells
Assay type: cell-based
Settings: CHO cell line that stably expressed human GPR40; changes in intracellular calcium concentration measured by FLIPR (Fluo3-AM)
Description: Determination of EC50 of the Compound of the Present Invention Against Human GPR40
For determination of EC50, CHO cell line that stably expressed human GPR40 was used. Unless otherwise indicated, the CHO cell line was cultured using α-MEM medium (Invitrogen) containing 10% fetal calf serum (Invitrogen).
The cells cultured to nearly confluent were rinsed with PBS (Invitrogen) on the previous day of the assay, peeled off with 0.05% Trypsin-EDTA solution (Invitrogen) and recovered by centrifugation. The number of the obtained cells was counted, and the cells were diluted such that 3×10^5 cells were contained per 1 mL of the medium, dispensed to a black welled 96-well plate (coster) by 100 μL per well and cultured overnight in a CO2 incubator. Various test compounds were added to the CHO cells thus prepared, and the changes in the intracellular calcium concentration was measured using FLIPR (Molecular Device). The below-mentioned pre-treatment was applied to measure changes in the intracellular calcium concentration by FLIPR.
An assay buffer for adding a fluorescent dye Fluo3-AM (DOJIN) to the cells, or for washing the cells immediately before FLIPR assay was prepared. To a solution of 1M HEPES (pH 7.4, DOJIN, 20 mL) added to HBSS (Invitrogen, 1000 mL) (hereinafter HBSS/HEPES solution) was added a solution (10 mL) obtained by dissolving probenecid (Sigma, 710 mg) in 1N NaOH (5 mL), and adding and mixing an HBSS/HEPES solution (5 mL), and the resulting solution was used as an assay buffer. Fluo3-AM (50 μg) was dissolved in dimethylsulfoxide (Wako, 21 μL), and an equivalent amount of 20% pluronic acid (Molecular Probes) was added and mixed. The solution was added to the assay buffer (10.6 mL) supplemented with fetal calf serum (105 μL) to give a fluorescent dye solution. On the previous day of assay, the medium of the CHO cells newly inoculated to the black welled 96-well plate was removed, the fluorescent dye solution was immediately dispensed by 100 μL per well and the cells were cultured in a CO2 incubator for 1 hr to allow intake of the fluorescent dye by the cells. The cells after the culture were washed with the above-mentioned assay buffer and set on FLIPR. The test compound was diluted with dimethylsulfoxide in advance, dispensed to polypropylene 96-well plate (sample plate) by 2 μL, and cryopreserved at −20° C. To the thawed sample plate was added an assay buffer containing 0.015% CHAPS (DOJIN) by 198 μL, and simultaneously set on FLIPR together with the cell plate. After the aforementioned pre-treatment, changes in the intracellular calcium concentration upon addition of various test compounds was measured by FLIPR. Based on the results, a dose-response curve of each test compound was formed and EC50 was calculated.

T1 sequence (O14842 whole entry): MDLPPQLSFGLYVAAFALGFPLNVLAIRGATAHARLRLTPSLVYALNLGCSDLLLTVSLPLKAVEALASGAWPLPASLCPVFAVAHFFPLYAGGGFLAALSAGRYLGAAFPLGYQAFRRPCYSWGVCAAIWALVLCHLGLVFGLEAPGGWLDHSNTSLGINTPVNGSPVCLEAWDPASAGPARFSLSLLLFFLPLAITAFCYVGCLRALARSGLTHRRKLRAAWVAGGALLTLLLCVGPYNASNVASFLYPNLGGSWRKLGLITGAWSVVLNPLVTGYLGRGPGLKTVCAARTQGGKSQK

EC50 | Compound
55 nM | CCCN(Cc1ccc(COc2ccc(CCC(=O)O)cc2)cc1)c1nc(-c2ccccc2)c(C)o1 [Example 40, 3-[4-[[4-[[(5-methyl-4-phenyl-1,3-oxazol-2-yl)(propyl)amino]methyl]benzyl]oxy]phenyl]propanoic acid]
19 nM | O=C(O)CCc1ccc(OCc2ccc(CN(CCc3ccccn3)c3nc(-c4ccccc4)cs3)cc2)cc1 [Example 12, 3-{4-[(4-([(4-phenyl-1,3-thiazol-2-yl)(2-pyridin-2-ylethyl)amino]methyl}benzyl)oxy]phenyl)propanoic acid]
65 nM | O=C(O)CCc1c(F)cc(OCc2ccc(CN(CCc3ccccc3)c3nc(-c4ccccc4)cs3)cc2)cc1F [Example 42, 3-[2,6-difluoro-4-[[4-[[(2-phenylethyl)(4-phenyl-1,3-thiazol-2-yl)amino]methyl]benzyl]oxy]phenyl]propanoic acid]
38 nM | CC(C)c1csc(N(CCc2ccc(F)cc2)Cc2ccc(COc3ccc(CCC(=O)O)c(F)c3)cc2)n1 [Example 9, 3-{2-fluoro-4-[(4-{[[2-(4-fluorophenyl)ethyl](4-isopropyl-1,3-thiazol-2-yl)amino]methyl}benzyl)oxy]-phenyl}propanoic acid]
48 nM | CC(C)c1csc(N(CCc2ccccc2)Cc2ccc(COc3ccc(CCC(=O)O)cc3)cc2)n1 [Example 2, 3-{4-[(4-{[(4-isopropyl-1,3-thiazol-2-yl)(2-phenylethyl)amino]methyl}benzyl)oxy]phenyl}propanoic acid]

Test system: not given
Assay: not given
Settings: not given

melting point | Compound
114 to 115 °C | O=C(O)CCc1ccc(OCc2ccc(CN(CCc3ccccc3)c3nc(-c4ccccc4)cs3)cc2)cc1 [Example 32, 3-[4-[[4-[[(2-phenylethyl)(4-phenyl-1,3-thiazol-2-yl)amino]methyl]benzyl]oxy]phenyl]propanoic acid]
